Patent publication US20240252445A1, “COMPOSITIONS AND METHODS OF PROMOTING AC[…] […] AND DIAGNOSTIC AGENTS IN THE HEART” (CASE WESTERN RESERVE UNIVERSITY, priority 2021, published 2024)

Conditions: NBDG 1 mg/kg

With O=[N+]([O-])c1ccc(N[C@H]2C(O)O[C@H](CO)[C@@H](O)[C@@H]2O)c2nonc12 (some centres unmarked) [NBDG] the NBDG fluorescence localisation (animals pre-injected with ePL, after organ perfusion) was “highly localized in the heart” and the “NBDG fluorescence in the heart in competition with unlabeled glucose” value (ePL pre-injected, unlabeled glucose 500 mg/kg) was “diminished”.
